Details: Liquid, Closed cell (Static) method

C=C(F)C(F)(F)F [2,3,3,3-tetrafluoro-1-propene]
Details	vapor or sublimation pressure [kPa]
248.17 K	123.1
251.18 K	138.8
254.21 K	156.9
258.2 K	184.3
260.18 K	198.3
262.18 K	213.8
264.2 K	229.9
266.25 K	248.1
270.26 K	286
271.16 K	295.3
273.21 K	316.5
275.22 K	338.2
277.22 K	361.5
279.14 K	385.1
281.23 K	411.4
285.18 K	466.2
287.22 K	496.4
289.22 K	526.7
291.22 K	558.8
293.25 K	593.4
295.25 K	627.9
297.55 K	672.2
299.19 K	703
301.32 K	746.2
303.25 K	786.5
305.11 K	825.8
306.31 K	852.9
309.51 K	927.9
311.49 K	976.6
313.43 K	1026.2
315.55 K	1082.8
317.23 K	1128.4
319.14 K	1182.9
321.02 K	1237.8
323.79 K	1322.3
325.56 K	1380
326.82 K	1420.8
328.86 K	1490.2
330.87 K	1560.1
332.97 K	1635.8
334.99 K	1711.2
336.99 K	1788.7
338.97 K	1868.1
341.06 K	1955.5
343.04 K	2040.1
345.05 K	2129.1
347.06 K	2221.2
349.05 K	2315.9
351.03 K	2412.1
353.08 K	2516.4
355.03 K	2618.5
357.23 K	2738.3
359.34 K	2856.6
361.05 K	2955.2

CC(F)(Cl)C(F)(F)F (stereo not given) [2-chloro-1,1,1,2-tetrafluoropropane]
Details	vapor or sublimation pressure [kPa]
268.19 K	49.7
270.19 K	54.4
273.18 K	60.5
275.18 K	66.4
278.16 K	74.3
281.15 K	83.9
283.12 K	88.9
286.13 K	100.5
288.11 K	106.5
290.12 K	116
292.13 K	124.6
295.09 K	138.2
298.12 K	151.8
300.09 K	163.5
302.11 K	175.3
304.25 K	185.9
307.02 K	203.2
308.9 K	215.2
310.68 K	227.6
313.35 K	247.9
315.28 K	261.8
318.34 K	286.5
320.84 K	307.9
324.02 K	334.9
325.63 K	351.9
328.81 K	382.6
330.46 K	401.6
333.63 K	435.9
335.25 K	456.6
338.51 K	495.5
339.67 K	510.3
341.68 K	536.4
343.28 K	559.6
345.27 K	588.1
347.07 K	615.8
349.07 K	645.9

From the NIST ThermoML archive (doi:10.1021/je400970y)
